Laboratory results taken from ChEMBL document CHEMBL5131391, “One-pot three-component synthesis of novel pyrazolo[3,4-b]pyridines as potent antileukemic agents” (Eur J Med Chem, 2022).
Calls of active or inactive are those of the source. The calls are words filed in the database; no cut-off is given here.

Key:
Format in all cases: functional
[1] = system: HCC 2998; assay: Cytostatic activity in human HCC 2998 cells assessed as tumor growth inhibition measured after 48 hrs by NCI protocol based SRB assay
[2] = system: OVCAR-3; assay: Antiproliferative activity against human OVCAR-3 cells assessed as growth inhibition measured after 48 hrs by NCI protocol based SRB assay
[3] = system: NCI-H23; assay: Antiproliferative activity against human NCI-H23 cells assessed as growth inhibition measured after 48 hrs by NCI protocol based SRB assay
[4] = system: M14; assay: Antiproliferative activity against human M14 cells assessed as growth inhibition measured after 48 hrs by NCI protocol based SRB assay
[5] = system: SK-OV-3; assay: Antiproliferative activity against human SK-OV-3 cells assessed as growth inhibition measured after 48 hrs by NCI protocol based SRB assay
[6] = system: SF-295; assay: Cytostatic activity in human SF-295 cells assessed as tumor growth inhibition measured after 48 hrs by NCI protocol based SRB assay
[7] = system: NCI/ADR-RES; assay: Cytostatic activity in human NCl/ADR-RES cells assessed as tumor growth inhibition measured after 48 hrs by NCI protocol based SRB assay
[8] = system: PC-3; assay: Cytostatic activity in human PC-3 cells assessed as tumor growth inhibition measured after 48 hrs by NCI protocol based SRB assay
[9] = system: A549; assay: Antiproliferative activity against human A549 cells assessed as growth inhibition measured after 48 hrs by NCI protocol based SRB assay
[10] = system: Malme-3M; assay: Antiproliferative activity against human Malme-3M cells assessed as growth inhibition measured after 48 hrs by NCI protocol based SRB assay
[11] = system: COLO 205; assay: Cytostatic activity in human COLO 205 cells assessed as tumor growth inhibition measured after 48 hrs by NCI protocol based SRB assay
[12] = system: Malme-3M; assay: Cytostatic activity in human Malme-3M cells assessed as tumor growth inhibition measured after 48 hrs by NCI protocol based SRB assay
[13] = system: UACC-257; assay: Cytostatic activity in human UACC-257 cells assessed as tumor growth inhibition measured after 48 hrs by NCI protocol based SRB assay
[14] = system: MDA-MB-435; assay: Antiproliferative activity against human MDA-MB-435 cells assessed as growth inhibition measured after 48 hrs by NCI protocol based SRB assay
[15] = system: SW-620; assay: Antiproliferative activity against human SW-620 cells assessed as growth inhibition measured after 48 hrs by NCI protocol based SRB assay
[16] = system: SNB-19; assay: Antiproliferative activity against human SNB-19 cells assessed as growth inhibition measured after 48 hrs by NCI protocol based SRB assay
[17] = system: NCI-H226; assay: Antiproliferative activity against human NCI-H226 cells assessed as growth inhibition measured after 48 hrs by NCI protocol based SRB assay
[18] = system: DU-145; assay: Antiproliferative activity against human DU-145 cells assessed as growth inhibition measured after 48 hrs by NCI protocol based SRB assay
[19] = system: TK-10; assay: Cytostatic activity in human TK-10 cells assessed as tumor growth inhibition measured after 48 hrs by NCI protocol based SRB assay
[20] = system: NCI-H23; assay: Cytostatic activity in human NCI-H23 cells assessed as tumor growth inhibition measured after 48 hrs by NCI protocol based SRB assay
[21] = system: OVCAR-8; assay: Antiproliferative activity against human OVCAR-8 cells assessed as growth inhibition measured after 48 hrs by NCI protocol based SRB assay
[22] = system: SK-MEL-28; assay: Antiproliferative activity against human SK-MEL-28 cells assessed as growth inhibition measured after 48 hrs by NCI protocol based SRB assay
[23] = system: NCI-H460; assay: Cytostatic activity in human NCI-H460 cells assessed as tumor growth inhibition measured after 48 hrs by NCI protocol based SRB assay
[24] = system: SN12C; assay: Antiproliferative activity against human SN12C cells assessed as growth inhibition measured after 48 hrs by NCI protocol based SRB assay
[25] = system: Hs-578T; assay: Antiproliferative activity against human Hs-578T cells assessed as growth inhibition measured after 48 hrs by NCI protocol based SRB assay
[26] = system: NCI-H322M; assay: Antiproliferative activity against human NCI-H322M cells assessed as growth inhibition measured after 48 hrs by NCI protocol based SRB assay
[27] = system: OVCAR-3; assay: Cytostatic activity in human OVCAR-3 cells assessed as tumor growth inhibition measured after 48 hrs by NCI protocol based SRB assay
[28] = system: LOX IMVI; assay: Cytostatic activity in human LOX IMVI cells assessed as tumor growth inhibition measured after 48 hrs by NCI protocol based SRB assay
[29] = system: UACC-62; assay: Antiproliferative activity against human UACC-62 cells assessed as growth inhibition measured after 48 hrs by NCI protocol based SRB assay
[30] = system: MDA-MB-468; assay: Cytostatic activity in human MDA-MB-468 cells assessed as tumor growth inhibition measured after 48 hrs by NCI protocol based SRB assay
[31] = system: PC-3; assay: Antiproliferative activity against human PC-3 cells assessed as growth inhibition measured after 48 hrs by NCI protocol based SRB assay
[32] = system: NCI-H322M; assay: Cytostatic activity in human NCI-H322M cells assessed as tumor growth inhibition measured after 48 hrs by NCI protocol based SRB assay
[33] = system: RXF 393; assay: Antiproliferative activity against human RXF 393 cells assessed as growth inhibition measured after 48 hrs by NCI protocol based SRB assay
[34] = system: NCI-H522; assay: Antiproliferative activity against human NCI-H522 cells assessed as growth inhibition measured after 48 hrs by NCI protocol based SRB assay
[35] = system: SNB-75; assay: Antiproliferative activity against human SNB-75 cells assessed as growth inhibition measured after 48 hrs by NCI protocol based SRB assay
[36] = system: MDA-MB-435; assay: Cytostatic activity in human MDA-MB-435 cells assessed as tumor growth inhibition measured after 48 hrs by NCI protocol based SRB assay
[37] = system: KM12; assay: Cytostatic activity in human KM12 cells assessed as tumor growth inhibition measured after 48 hrs by NCI protocol based SRB assay
[38] = system: RS4-11; assay: Induction of cell cycle arrest in human RS4-11 cells assessed as accumulation of cells in G2/M phase at 1.25 to 10 uM measured after 72 hrs by PI staining based flow cytometry analysis; conditions: dose 1.25-10 µM
[39] = read-out: LC50 (the source's name)

N#Cc1c(-c2ccccc2)nc2c(c(-c3ccccc3)nn2-c2ccccc2)c1-c1ccc(O)cc1
TGI [1]: 3.47 µM
GI50 [2]: 2 µM
CC50 [2, 39]: 9.91 µM
GI50 [3]: 1.78 µM
CC50 [3, 39]: 8.26 µM
GI50 [4]: 2.27 µM
CC50 [4, 39]: 23 µM
GI50 [5]: 2.87 µM
CC50 [5, 39]: 2.98 µM
TGI [6]: 4.29 µM
TGI [7]: 5.62 µM
TGI [8]: 3.78 µM
GI50 [9]: 2.57 µM
CC50 [9, 39]: 84.2 µM
GI50 [10]: 1.62 µM
CC50 [10, 39]: 9.06 µM
TGI [11]: 6.31 µM
TGI [12]: 3.83 µM
TGI [13]: 12.1 µM
GI50 [14]: 1.86 µM
CC50 [14, 39]: 7.39 µM
GI50 [15]: 1.86 µM
CC50 [15, 39]: 6.72 µM
GI50 [16]: 1.9 µM
CC50 [16, 39]: 7.57 µM
GI50 [17]: 1.97 µM
CC50 [17, 39]: 37.3 µM
GI50 [18]: 2.62 µM
CC50 [18, 39]: 37.7 µM
TGI [19]: 8.19 µM
TGI [20]: 3.84 µM
GI50 [21]: 3.14 µM
CC50 [21, 39]: > 100 µM
GI50 [22]: 1.58 µM
CC50 [22, 39]: 5.86 µM
TGI [23]: 3.26 µM
GI50 [24]: 1.64 µM
CC50 [24, 39]: 5.63 µM
GI50 [25]: 1.41 µM
CC50 [25, 39]: 43.8 µM
GI50 [26]: 1.57 µM
CC50 [26, 39]: 5.56 µM
TGI [27]: 4.45 µM
TGI [28]: 3.05 µM
GI50 [29]: 1.7 µM
CC50 [29, 39]: 5.93 µM
TGI [30]: 5.57 µM
GI50 [31]: 1.82 µM
CC50 [31, 39]: 7.86 µM
TGI [32]: 2.96 µM
GI50 [33]: 1.03 µM
CC50 [33, 39]: 5.37 µM
GI50 [34]: 2.32 µM
CC50 [34, 39]: > 100 µM
GI50 [35]: 2.03 µM
CC50 [35, 39]: 28.3 µM
TGI [36]: 3.71 µM
TGI [37]: 4.76 µM

Cc1ccc(-c2nc3c(c(-c4ccccc4)nn3-c3ccccc3)c(-c3ccc(O)cc3)c2C#N)cc1
Activity [38]: Active
